Measurements reported in patent US9730906B2, “α-derivatives of cis-monounsaturated fatty acids for use as medicines” (UNIVERSITAT DE LES ILLES BALEARS, priority 2008, dated 2017).

What was measured:
Test in all cases: Effect of OHOD on cancer cells in culture (Table 2)
Assay type in all cases: cell-based, human
A172 = system: A172; set-up: key to Anti-tumour effect: + [inhibition of growth]; ++ [total halt of growth]; +++ [total removal of tumour cells]; key to Mechanism of action: P [anti-proliferative]; D [differentiation]; A [apoptosis]; conditions: A172, Glioma
Protocol: (§1) Also, a series of α-derivatives of cis-monounsaturated fatty acids were used to investigate their effectiveness in cancer treatment. Two types of experiment were performed. Firstly, the dependency of the anti-tumour effect on concentration was investigated. To perform these experiments, human lung cancer cells (A549) were cultivated in RPMI medium, supplemented with 10% foetal bovine […], 10 mM Hepes (pH 7.4), 2 mM glutamine, 2 g/l bicarbonate, 1 g/l glucose, 100 units/ml penicillin, 0.1 mg/ml streptomycin, 0.25 μg/ml Amphotericin B, at 37° C. and in the presence of 5% CO2. In a first experimental series, these cells were treated with various concentrations (0-400 μM) of OHOD and MOD11 and the number of cells was determined by flow cytometry (FIG. 3A). […] In a second series, the anti-tumour effectiveness on A549 lung cancer cells was investigated at a single concentration (150 μM) and a time of 48 hours (FIG. 3B). […] Obviously, among the previous molecules, some lacked both modifications on the α-carbon and the double bond in cis configuration (EO, HDO, ODO) and had no therapeutic effect.
(§2) In a second experimental series, designed to discover whether these molecules are effective in treatment of different types of tumours, the effect of OHOD at various concentrations on human cells of different types of cancer was studied. These experiments were performed as described before, except that the M220 and HT-29 cell lines were cultured in DMEM medium and the MDA-MB-231 line was incubated in Leibowitz L-15 medium supplemented with 15% foetal bovine […]. […] Where the nature of the tumour process requires, application can be topical (use on the skin of active products for the treatment of melanoma and other cutaneous abnormalities of cancerous nature), which can be considered as cosmetic treatments when attempts are made to correct aesthetic defects.

HT-29 = system: HT-29; set-up: key to Anti-tumour effect: + [inhibition of growth]; ++ [total halt of growth]; +++ [total removal of tumour cells]; key to Mechanism of action: P [anti-proliferative]; D [differentiation]; A [apoptosis]; conditions: HT-29, Colon
Protocol: as §1, §2

HeLa = system: HeLa; set-up: key to Anti-tumour effect: + [inhibition of growth]; ++ [total halt of growth]; +++ [total removal of tumour cells]; key to Mechanism of action: P [anti-proliferative]; D [differentiation]; A [apoptosis]; conditions: Cervix
Protocol: as §1, §2

Jurkat = system: Jurkat; set-up: key to Anti-tumour effect: + [inhibition of growth]; ++ [total halt of growth]; +++ [total removal of tumour cells]; key to Mechanism of action: P [anti-proliferative]; D [differentiation]; A [apoptosis]; conditions: Lym-Leukaemia
Protocol: as §1, §2

L-1210 = system: L-1210; set-up: key to Anti-tumour effect: + [inhibition of growth]; ++ [total halt of growth]; +++ [total removal of tumour cells]; key to Mechanism of action: P [anti-proliferative]; D [differentiation]; A [apoptosis]; conditions: L-1210, Lym-Leukaemia
Protocol: as §1, §2

M220 = system: M220; set-up: key to Anti-tumour effect: + [inhibition of growth]; ++ [total halt of growth]; +++ [total removal of tumour cells]; key to Mechanism of action: P [anti-proliferative]; D [differentiation]; A [apoptosis]; conditions: M220, Pancreas
Protocol: as §1, §2

MDA-MB-231 = system: MDA-MB-231; set-up: key to Anti-tumour effect: + [inhibition of growth]; ++ [total halt of growth]; +++ [total removal of tumour cells]; key to Mechanism of action: P [anti-proliferative]; D [differentiation]; A [apoptosis]; conditions: MDA-MB-231, Breast
Protocol: as §1, §2

SH-SY5Y = system: SH-SY5Y; set-up: key to Anti-tumour effect: + [inhibition of growth]; ++ [total halt of growth]; +++ [total removal of tumour cells]; key to Mechanism of action: P [anti-proliferative]; D [differentiation]; A [apoptosis]; conditions: Neuroblastoma
Protocol: as §1, §2

T98G = system: T98G; set-up: key to Anti-tumour effect: + [inhibition of growth]; ++ [total halt of growth]; +++ [total removal of tumour cells]; key to Mechanism of action: P [anti-proliferative]; D [differentiation]; A [apoptosis]; conditions: Glioma
Protocol: as §1, §2

U87-MG = system: U87-MG; set-up: key to Anti-tumour effect: + [inhibition of growth]; ++ [total halt of growth]; +++ [total removal of tumour cells]; key to Mechanism of action: P [anti-proliferative]; D [differentiation]; A [apoptosis]; conditions: Glioma
Protocol: as §1, §2

C-6 = system: C-6; set-up: key to Anti-tumour effect: + [inhibition of growth]; ++ [total halt of growth]; +++ [total removal of tumour cells]; conditions: C-6, Glio-Brain
Protocol: as §1, §2

HL-60 = system: HL-60; set-up: key to Anti-tumour effect: + [inhibition of growth]; ++ [total halt of growth]; +++ [total removal of tumour cells]; conditions: HL-60, Myel-Leukaemia
Protocol: as §1, §2

PC3 = system: PC3; set-up: key to Anti-tumour effect: + [inhibition of growth]; ++ [total halt of growth]; +++ [total removal of tumour cells]; conditions: PC3, Prostate
Protocol: as §1, §2

MCF7 = system: MCF7; set-up: key: + [inhibition of growth]; ++ [total halt of growth]; +++ [total removal of tumour cells]; conditions: MCF7, Breast
Protocol: as §1, §2

NCI-H460 = system: NCI-H460; set-up: key: + [inhibition of growth]; ++ [total halt of growth]; +++ [total removal of tumour cells]; conditions: NCI-H460, Lung (CPNM)
Protocol: as §1, §2

SF-268 = system: SF-268; set-up: key: + [inhibition of growth]; ++ [total halt of growth]; +++ [total removal of tumour cells]; conditions: SF-268, Glioma
Protocol: as §1, §2

Q: `CCCCCCCC/C=C\CCCCCCC(O)C(=O)O` (stereo not drawn) [OHOD, α-Hydroxy-cis-Δ9-octadecenoic] was tested. Which Anti-tumour effect (A172) did it give?
A: ++

Q: What about the Mechanism of action (A172) of the same compound?
A: D

Q: What about the Anti-tumour effect (HT-29) of the same compound?
A: ++

Q: And the Mechanism of action (HT-29)?
A: A

Q: What about the Anti-tumour effect (HeLa) of the same compound?
A: +++

Q: And the Mechanism of action (HeLa)?
A: A

Q: What about the Anti-tumour effect (Jurkat) of the same compound?
A: +++

Q: What about the Mechanism of action (Jurkat) of the same compound?
A: A

Q: And the Anti-tumour effect (L-1210)?
A: +++

Q: And the Mechanism of action (L-1210)?
A: A

Q: And the Anti-tumour effect (M220)?
A: ++

Q: And the Mechanism of action (M220)?
A: A

Q: And the Anti-tumour effect (MDA-MB-231)?
A: ++

Q: What about the Mechanism of action (MDA-MB-231) of the same compound?
A: A

Q: What about the Anti-tumour effect (SH-SY5Y) of the same compound?
A: +

Q: And the Mechanism of action (SH-SY5Y)?
A: P

Q: What about the Anti-tumour effect (T98G) of the same compound?
A: +++

Q: What about the Mechanism of action (T98G) of the same compound?
A: D

Q: And the Anti-tumour effect (U87-MG)?
A: +++

Q: What about the Mechanism of action (U87-MG) of the same compound?
A: D

Q: What about the Anti-tumour effect (C-6) of the same compound?
A: +++

Q: What about the Mechanism of action (C-6) of the same compound?
A: P D

Q: What about the Anti-tumour effect (HL-60) of the same compound?
A: +++

Q: And the Mechanism of action (HL-60)?
A: P D A

Q: And the Anti-tumour effect (PC3)?
A: +++

Q: And the Mechanism of action (PC3)?
A: P A

Q: What about the Anti-tumour effect (MCF7) of the same compound?
A: +++

Q: And the Anti-tumour effect (NCI-H460)?
A: +++

Q: What about the Anti-tumour effect (SF-268) of the same compound?
A: +++
